Experimental data as given in patent publication US7910647B2, “Adhesion inhibition of microorganisms by non-ionic surfactants” (Henkel AG & Co. KGaA, priority 2003, dated 2011).

System: Aspergillus niger
Assay: Adhesion test with molds on silicone sealant DC3390 film
Conditions: 1 wt. % surfactant in silicone sealant DC3390; adhered Aspergillus niger spores (CFU) after 48 hours at 25° C.; sealant with no active substance = 100
Procedure: The silicone sealant DC3390 was used. 1 wt. % of surfactant was added and homogenized in the Speedmixer. The surfactants indicated in Table 1 were tested in comparison with the joint sealing compound without the addition of the surfactants being tested. The resulting composition was spread as the film (22×22×2 mm) and left to harden in air. The resulting test specimen was disinfected with 70% ethanol for 10 minutes, then washed with distilled water and dried. The test specimens were subsequently coated with a germ suspension of Aspergillus niger and incubated for one hour. The germ suspension was then siphoned off and the specimen was washed twice. The specimens were transferred into sterile tubes that contained 5 ml of inactivation solution and shaken on a shaker for 10 minutes at 400 rpm. To determine the number of adhered spores, firstly the specimens were placed in sterile 6-well plates and covered with wort agar with INT, secondly a determination of the colony count of the inactivation solution was carried out by the inoculation plate method. After 48 hours incubation at 25° C., the number of colony forming units (CFU) was subsequently determined.

CCO[Si](CCC(F)(F)C(F)(F)C(F)(F)C(F)(F)C(F)(F)C(F)(F)F)(OCC)OCC [DYNASYLAN F8261, perfluorinated octyltriethoxysilane]
Mold adhesion [%]: 80%
